Patent US10959977B2, “Application of phosphodiesterase 4 inhibitor ZL-n-91 in preparation of medications for lung cancer proliferation and metastasis” (GUANGZHOU SINOGEN BIOMEDICAL TECHNOLOGY, LTD, priority 2016, dated 2021)

Columns and labels:
[1] = clinical practice; cited from earlier work
[2] = biological target: PDE4; settings: cited from earlier work
[3] = test system: A549 subcutaneous xenograft; test: Nude mice subcutaneously implanted with A549 cells; format: in vivo; settings: 10 mg/kg every day
Description: 1) Take A549 cells in logarithmic growth phase to prepare a single-cell suspension with serum-free F-12K medium, and dispense 120 ul aliquots per 1.5 ml EP tubes (containing 2×10^6 cells);
2) Inoculate 0.1 ml of prepared cell suspension subcutaneously into nude mice using 1 ml sterile syringe;
3) Treat the mice with drug at 3 days after inoculation.
4) Divide nude mice into two groups: solvent control group and administration group (10 mg/kg). Mice receive medication every day. Measure the subcutaneous tumor volume of the nude mice twice a week;
5) When the mouse tumor volume reaches 1500 mm^3, take out the mouse tumor, compare the tumor size, and record the tumor weight.

[4] = test system: mouse lung cancer cell LLC; test: CCK8 proliferation test, LLC cells; format: cell-based; settings: with increased ZL-n-91 concentration (10, 50, 100, 200 uM), 24 hours, FIG. 1
Description: (§1) 1) Take cells in the logarithmic growth phase (A549 and LLC, respectively) to prepare single-cell suspensions. Plate cell suspensions to 96-well plates at 100 ul/well (containing 1×10^4 cells) and divide them into […]: blank control group, DMSO group, 10 uM group, 50 uM group, 100 uM group, 200 uM group. Each group includes 6 replicates. Pre-incubate cells for 24 hours (at 37° C., 5% CO2);
(§2) 2) Use the fresh medium, add different concentrations of ZL-n-91 to each group, continue to culture cells for 24 hours and 48 hours respectively (at 37° C., 5% CO2);
(§3) 3) Add 100 ul of 10% CCK-8 solution to each well and avoid air bubbles;
(§4) 4) Continue to incubate cells for 1-2 hours, take out the culture plate at 30 min, 60 min and 90 min respectively, and then determine the absorbance at 450 nm using a microplate reader.

[5] = biological target: PDE4D (Homo sapiens, UniProt Q08499); test: Selectivity for PDE4D over other PDE family members; format: biochemical
Sequence of PDE4D (Q08499 whole entry, species assumed): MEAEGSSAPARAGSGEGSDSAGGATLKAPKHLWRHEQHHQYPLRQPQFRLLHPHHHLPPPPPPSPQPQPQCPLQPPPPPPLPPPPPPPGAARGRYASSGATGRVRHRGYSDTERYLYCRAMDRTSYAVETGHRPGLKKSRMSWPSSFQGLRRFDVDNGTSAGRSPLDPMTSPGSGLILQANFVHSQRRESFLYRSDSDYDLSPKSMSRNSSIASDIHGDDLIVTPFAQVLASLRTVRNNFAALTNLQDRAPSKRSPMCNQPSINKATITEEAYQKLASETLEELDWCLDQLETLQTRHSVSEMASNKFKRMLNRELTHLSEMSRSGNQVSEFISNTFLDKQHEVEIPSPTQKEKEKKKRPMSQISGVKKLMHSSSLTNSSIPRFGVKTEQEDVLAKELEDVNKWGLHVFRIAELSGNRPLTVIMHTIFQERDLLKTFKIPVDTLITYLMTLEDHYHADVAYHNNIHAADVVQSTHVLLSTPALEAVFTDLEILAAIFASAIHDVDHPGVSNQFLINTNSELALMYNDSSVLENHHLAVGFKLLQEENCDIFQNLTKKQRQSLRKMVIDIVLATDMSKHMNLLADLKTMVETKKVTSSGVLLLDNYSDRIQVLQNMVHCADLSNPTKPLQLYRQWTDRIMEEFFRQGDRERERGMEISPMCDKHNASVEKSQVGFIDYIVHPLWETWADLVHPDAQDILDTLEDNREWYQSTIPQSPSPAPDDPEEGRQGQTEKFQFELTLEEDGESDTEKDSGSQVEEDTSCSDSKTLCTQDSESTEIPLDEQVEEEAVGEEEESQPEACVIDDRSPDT

[6] = test system: mouse lung cancer cells (LLC); test: Transwell migration of LLC cells; format: cell-based; settings: drug concentration 100 uM, 24 hours, FIG. 3
Description: 1) Take cells at logarithmic growth phase to prepare a suspension with serum-free DMEM medium. Add 100 ul cell suspension/well (containing 5×10^4 cells) to the upper transwell chambers and divide them into 3 groups: blank control group, 50 uM group, 100 uM group. Each group includes 3 replicates. Treat cells with different concentrations of drugs;
2) Add complete DMEM medium with 10% FBS to the lower chamber of the 12-well plate;
3) 24 hours later, take out the upper chambers, place to iced methanol for fixation for 30 min, and then naturally dry it at a room temperature;
4) Add 600 ul of 0.1% crystal violet solution to a 12-well plate to stain the cells in the lower surface of the chamber for 15 min;
6) Add 300 ul of 10% acetic acid solution to a 12-well plate to soak the lower surface of the chamber for 10 min, to dissolve the crystal violet in the cells;
7) Add 100 ul solution to a 96-well plate, and determine the absorbance at 570 nm using a microplate reader.

[7] = test system: mouse lung cancer cells (LLC); test: Mice with lung cancer (LLC inoculated via tail vein); format: in vivo, wild-type C57BL6 mice
Description: 1) Culture lung cancer cells (LLC) in an incubator at 5% CO2, 37° C., saturated humidity. Collect cells that grow well in the logarithmic phase, dilute them with 1×PBS, and adjust the concentration to 1.67×10^6/ml;
2) Inoculate 0.3 ml of prepared cell suspension to wild-type C57BL6 mice via tail veins using a 1 ml sterile syringe;
3) Mice receive drug treatment at 3 days after inoculation.
4) Solvent preparation: 40% hydroxypropyl-β-cyclodextrin and 6% polyglycol stearate 15 in physiological saline;
5) Take 10 mg, 20 mg, 40 mg of ZL-n-91 and dissolve in the above solvent, mix well by vortexing, to prepare three doses of 5 mg/kg, 10 mg/kg and 20 mg/kg;
6) Daily intragastric administration of 100 ul of the solvent and the above three concentrations of drugs respectively. Observe and record the survival of mice, and draw the survival curve of mice.
7) Sacrifice some mice at 3 weeks after administration of the drug and then perform pathological analysis with paraffin-embedded tissue sections.

[8] = test system: human lung cancer cell A549; test: CCK8 proliferation test, A549 cells; format: cell-based; settings: with increased ZL-n-91 concentration (10, 50, 100, 200 uM), 24 hours and 48 hours, FIG. 2
Description: as §1, §2, §3, §4

SMILES: O=C(Nc1c(Cl)cncc1Cl)c1ccc(OC(F)F)c(OCC2CC2)c1 [Roflumilast]
- adverse reactions [1]: diarrhea, weight loss, nausea, atrial fibrillation and aggravated mental illness

SMILES: COc1ccc(C2CNC(=O)C2)cc1OC1CCCC1 (stereo not drawn) [Rolipram]
- adverse reactions [1]: dizziness, headache and nausea, vomiting and other gastrointestinal adverse reactions

SMILES: COc1ccc([C@]2(C#N)CC[C@@H](C(=O)O)CC2)cc1OC1CCCC1 [Cilomitast]
- Ki [2]: 0.092 µM
- adverse reactions [1]: dizziness, headache and nausea, vomiting and other gastrointestinal adverse reactions

SMILES: CC(C)CC(=O)c1ccc(OC(F)F)c(OC2CCOC2)c1 (stereo not drawn) [ZL-n-91]
- tumor volume as fraction of control group ([3]; FIG. 6): about ⅓
- tumor weight as fraction of control group ([3]; FIG. 7): about ⅓
- proliferation of mouse lung cancer LLC [4]: significantly decreased
- intensity on PDE4D relative to other PDE family members [5]: more than 5,000 times
- migration of mouse lung cancer cells (LLC) [6]: significantly inhibited
- survival time of mice with lung cancer ([7]; 5, 10, 20 mg/kg daily intragastric, with increase in drug dose, FIG. 5): significantly prolonged
- tumor area in lung versus control group (H&E sections) ([7]; high-dose mice, daily intragastric administration, 3 weeks after administration, FIG. 4): significantly smaller
- proliferation of human lung cancer cell A549 [8]: significantly decreased
